# Measured values reported in ChEMBL document CHEMBL3792318, “Rapid, Structure-Based Exploration of Pipecolic Acid Amides as Novel Selective Antagonists of the FK506-Binding Protein 51” (J Med Chem, 2016).
# Calls of active or inactive are those of the source. The calls are words filed in the database; no cut-off is given here.
# How the values were obtained:
# [1] = molecular target: T1, Peptidyl-prolyl cis-trans isomerase FKBP5 (Homo sapiens, UniProt Q13451); assay: (§1) Binding affinity to FKBP51 FK506-binding domain (1 to 140 amino acids) (unknown origin) incubated for 30 mins using fluorescein-conjugated 2-(5-((2-(3-((R)-3-(3,4-dimethoxyphenyl)-1-((S)-1-(3,3-dimethyl-2-oxopentanoyl)piperidine-2-carbonyloxy)propyl)phenoxy)acetamido)methyl)-6-hydroxy-3-oxo-3H-xanthen-9-yl)benzoic acid by competitive fluorescence polarization assay
# T1 sequence (Q13451 whole entry): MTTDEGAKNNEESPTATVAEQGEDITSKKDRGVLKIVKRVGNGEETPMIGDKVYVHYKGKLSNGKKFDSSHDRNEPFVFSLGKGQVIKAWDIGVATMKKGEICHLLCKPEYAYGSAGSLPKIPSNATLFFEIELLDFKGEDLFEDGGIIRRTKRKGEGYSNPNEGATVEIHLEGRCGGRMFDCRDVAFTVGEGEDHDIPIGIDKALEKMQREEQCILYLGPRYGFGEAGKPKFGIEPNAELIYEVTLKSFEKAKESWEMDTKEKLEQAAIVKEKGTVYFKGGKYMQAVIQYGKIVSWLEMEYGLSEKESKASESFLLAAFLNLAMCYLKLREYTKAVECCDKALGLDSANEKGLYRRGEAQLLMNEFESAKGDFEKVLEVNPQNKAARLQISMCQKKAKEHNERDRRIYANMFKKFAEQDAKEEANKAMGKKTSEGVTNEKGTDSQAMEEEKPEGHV
# [2] = molecular target: Peptidyl-prolyl cis-trans isomerase FKBP1A (Homo sapiens, UniProt P62942); assay: as §1, with “human FKBP12 FK1” for “FKBP51 FK506-binding”, “domain” for “domain (1 to 140 amino acids) (unknown origin)”
# [3] = molecular target: T2, Peptidyl-prolyl cis-trans isomerase FKBP4 (Homo sapiens) (UniProt Q02790); assay: as §1, with “FKBP52” for “FKBP51 FK506-binding domain”, “origin) up to 500 uM” for “origin)”
# T2 sequence (whole entry): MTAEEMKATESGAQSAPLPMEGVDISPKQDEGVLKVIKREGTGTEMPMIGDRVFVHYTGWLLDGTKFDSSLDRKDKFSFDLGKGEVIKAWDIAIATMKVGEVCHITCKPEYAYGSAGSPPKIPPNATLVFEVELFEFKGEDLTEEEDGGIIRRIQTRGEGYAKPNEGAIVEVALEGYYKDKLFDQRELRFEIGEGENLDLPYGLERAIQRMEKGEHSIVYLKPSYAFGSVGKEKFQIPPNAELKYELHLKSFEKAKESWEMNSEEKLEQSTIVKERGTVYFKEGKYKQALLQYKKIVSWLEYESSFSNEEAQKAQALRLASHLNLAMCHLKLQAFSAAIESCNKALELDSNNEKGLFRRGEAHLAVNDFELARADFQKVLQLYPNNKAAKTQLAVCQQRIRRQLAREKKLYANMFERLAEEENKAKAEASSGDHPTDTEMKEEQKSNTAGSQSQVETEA
# [4] = molecular target: T1, Peptidyl-prolyl cis-trans isomerase FKBP5
# Description: Binding affinity to FKBP51 (unknown origin) by competitive fluorescence polarization assay
# Chain of Peptidyl-prolyl cis-trans isomerase FKBP1A (P62942 whole entry, the tested form may be a part): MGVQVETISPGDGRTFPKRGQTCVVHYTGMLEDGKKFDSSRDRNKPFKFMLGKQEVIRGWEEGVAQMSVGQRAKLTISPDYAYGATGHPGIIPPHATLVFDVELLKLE
Ki [1] [µM],Ki [2] [µM],inhibition [3],Ki [4] [µM],Structure (SMILES)
62.9,–,–,–,COc1cc([C@@H](C(=O)N2CCCC[C@H]2C(=O)N[C@@H](CO)C(N)=O)C2CCCCC2)cc(OC)c1OC
3.9,4.2,–,–,COc1cc([C@@H](C(=O)N2CCCC[C@H]2C(=O)NCCCCC(N)=O)C2CCCCC2)cc(OC)c1OC
0.14,3.8,inactive,–,COc1cc([C@@H](C(=O)N2CCCC[C@H]2C(=O)NC2(C(N)=O)CCCC2)C2CCCCC2)cc(OC)c1OC
5.7,22.3,–,–,COc1cc([C@@H](C(=O)N2CCCC[C@H]2C(=O)NCCCC(N)=O)C2CCCCC2)cc(OC)c1OC
4.9,23.4,–,–,COc1cc([C@@H](C(=O)N2CCCC[C@H]2C(=O)NC2(C(N)=O)CCC2)C2CCCCC2)cc(OC)c1OC
1.8,3,–,–,COc1cc([C@@H](C(=O)N2CCCC[C@H]2C(=O)NC2(C(N)=O)CCOCC2)C2CCCCC2)cc(OC)c1OC
2.8,46.9,–,–,COc1cc([C@@H](C(=O)N2CCCC[C@H]2C(=O)N[C@H](CO)C(N)=O)C2CCCCC2)cc(OC)c1OC
36.7,> 300,–,–,COc1cc([C@@H](C(=O)N2CCCC[C@H]2C(=O)NCC(N)=O)C2CCCCC2)cc(OC)c1OC
19.5,50.3,–,–,COc1cc([C@@H](C(=O)N2CCCC[C@H]2C(=O)NC2(C(N)=O)CC2)C2CCCCC2)cc(OC)c1OC
1.9,4.3,–,–,COc1cc([C@@H](C(=O)N2CCCC[C@H]2C(=O)NC2(C(N)=O)CCCCC2)C2CCCCC2)cc(OC)c1OC
5.6,49.2,–,–,COc1cc([C@@H](C(=O)N2CCCC[C@H]2C(=O)NCCC(N)=O)C2CCCCC2)cc(OC)c1OC
3.4,120,–,–,COc1cc([C@@H](C(=O)N2CCCC[C@H]2C(=O)N[C@H](CCC(N)=O)C(N)=O)C2CCCCC2)cc(OC)c1OC
17.1,30.7,–,–,COc1cc([C@@H](C(=O)N2CCCC[C@H]2C(=O)N[C@@H](C)C(N)=O)C2CCCCC2)cc(OC)c1OC
345,–,–,–,COc1cc([C@@H](C(=O)N2CCCC[C@H]2C(=O)N[C@@H](CCC(N)=O)C(N)=O)C2CCCCC2)cc(OC)c1OC
2.2,25.1,–,–,COc1cc([C@@H](C(=O)N2CCCC[C@H]2C(=O)NC(C)(C)C(N)=O)C2CCCCC2)cc(OC)c1OC
0.8,2,–,–,COc1cc([C@@H](C(=O)N2CCCC[C@H]2C(=O)NC2(C(=O)NCC(N)=O)CCCC2)C2CCCCC2)cc(OC)c1OC

# Continued, compound first:
Structure (SMILES),Ki [1] [µM],Ki [2] [µM],inhibition [3],Ki [4] [µM]
CC[C@H](C)[C@H](NC(=O)[C@@H]1CCCCN1C(=O)[C@H](c1cc(OC)c(OC)c(OC)c1)C1CCCCC1)C(N)=O,7.1,12.1,–,–
CC[C@@H](C)[C@@H](NC(=O)[C@@H]1CCCCN1C(=O)[C@H](c1cc(OC)c(OC)c(OC)c1)C1CCCCC1)C(N)=O,3.2,8.7,–,–
COc1cc([C@@H](C(=O)N2CCCC[C@H]2C(=O)N[C@@H](CCc2ccccc2)C(N)=O)C2CCCCC2)cc(OC)c1OC,9.1,30.1,–,–
COc1cc([C@@H](C(=O)N2CCCC[C@H]2C(=O)N[C@H](C(N)=O)C(C)C)C2CCCCC2)cc(OC)c1OC,12.6,11.5,–,–
COc1cc([C@@H](C(=O)N2CCCC[C@H]2C(=O)N[C@@H](Cc2ccccc2)C(N)=O)C2CCCCC2)cc(OC)c1OC,6.5,10.9,–,–
COc1cc([C@@H](C(=O)N2CCCC[C@H]2C(=O)N[C@@H](CC2CCCCC2)C(N)=O)C2CCCCC2)cc(OC)c1OC,17.8,6.6,–,–
COc1cc([C@@H](C(=O)N2CCCC[C@H]2C(=O)N[C@@H](CC(C)C)C(N)=O)C2CCCCC2)cc(OC)c1OC,8.7,6.6,–,–
COc1cc([C@@H](C(=O)N2CCCC[C@H]2C(=O)N[C@H](C)C(N)=O)C2CCCCC2)cc(OC)c1OC,10,71.1,–,–
COc1cc([C@@H](C(=O)N2CCCC[C@H]2C(=O)N[C@@H](C(N)=O)C(C)C)C2CCCCC2)cc(OC)c1OC,5,39.7,–,–
COc1cc([C@@H](C(=O)N2CCCC[C@H]2C(=O)N[C@@H](CCO)C(N)=O)C2CCCCC2)cc(OC)c1OC,–,317,–,–
COc1cc([C@@H](C(=O)N2CCCC[C@H]2C(=O)N[C@H](Cc2ccccc2)C(N)=O)C2CCCCC2)cc(OC)c1OC,1.4,5.6,–,–
C=CC[C@@H]1/C=C(\C)C[C@H](C)C[C@H](OC)[C@H]2O[C@@](O)(C(=O)C(=O)N3CCCC[C@H]3C(=O)O[C@H](/C(C)=C/[C@@H]3CC[C@@H](O)[C@H](OC)C3)[C@H](C)[C@@H](O)CC1=O)[C@H](C)C[C@@H]2OC [TACROLIMUS ANHYDROUS],–,–,–,0.079
COc1cc([C@@H](C(=O)N2CCCC[C@H]2C(=O)N[C@H](C(N)=O)c2ccccc2)C2CCCCC2)cc(OC)c1OC,–,7.5,–,–
COc1cc([C@@H](C(=O)N2CCCC[C@H]2C(=O)N[C@H](Cc2cnc[nH]2)C(N)=O)C2CCCCC2)cc(OC)c1OC,3.8,26.9,–,–
COc1cc([C@@H](C(=O)N2CCCC[C@H]2C(=O)N[C@H](C(N)=O)C2CCCCC2)C2CCCCC2)cc(OC)c1OC,4.3,12.8,–,–
COc1cc([C@@H](C(=O)N2CCCC[C@H]2C(=O)N[C@H](CCO)C(N)=O)C2CCCCC2)cc(OC)c1OC,–,1.2,–,–
COc1cc([C@@H](C(=O)N2CCCC[C@H]2C(=O)NC(C)(C)CC(N)=O)C2CCCCC2)cc(OC)c1OC,3.8,3.2,–,–
CC[C@H](NC(=O)[C@@H]1CCCCN1C(=O)[C@H](c1cc(OC)c(OC)c(OC)c1)C1CCCCC1)C(N)=O,3.6,51.9,–,–
COc1cc([C@@H](C(=O)N2CCCC[C@H]2C(=O)N[C@@H](C(N)=O)c2ccccc2)C2CCCCC2)cc(OC)c1OC,–,12.4,–,–
COc1cc([C@@H](C(=O)N2CCCC[C@H]2C(=O)N[C@@H](CCC2CCCCC2)C(N)=O)C2CCCCC2)cc(OC)c1OC,12,22.5,–,–
COc1cc([C@@H](C(=O)N2CCCC[C@H]2C(=O)N[C@@H](Cc2cnc[nH]2)C(N)=O)C2CCCCC2)cc(OC)c1OC,13.4,101,–,–
CCNC(=O)[C@@H]1CCCCN1C(=O)[C@H](c1cc(OC)c(OC)c(OC)c1)C1CCCCC1,55,–,–,–
CC[C@@H](NC(=O)[C@@H]1CCCCN1C(=O)[C@H](c1cc(OC)c(OC)c(OC)c1)C1CCCCC1)C(N)=O,4.5,6,–,–
COc1ccc(CC[C@@H](NC(=O)[C@@H]2CCCCN2C(=O)[C@H](c2cc(OC)c(OC)c(OC)c2)C2CCCCC2)c2cccc(OCC(=O)O)c2)cc1OC,0.043,–,–,–
